Measured values reported in paper PMC8325119, “A Novel Class of Functionalized Synthetic Fluoroquinolones with Dual Antiproliferative - Antimicrobial Capacities” (Asian Pacific Journal of Cancer Prevention : APJCP, 2021).
Several values for one entry are separate records, joined by “and”; a condition that tells them apart may be missing. Equal entries are not always repeated. Where two headings read alike, the source gives them in different places.

Legend:
A549 cell line = experiment: SRB cytotoxicity assay, A549 lung cancer cell line; conditions: Homo sapiens, A549, 72 h, read-out: Cytotoxicity IC50 value, A549 cell line
Experimental: (§1) All reagents and chemicals of analytical grade were obtained from Sigma (Dorset, UK); unless stated otherwise. All chemicals, reagents and solvents (of analytical grade) were used directly without further purification. MCF7 cell line ATCC® HTB-22™, T47D cell line ATCC® HTB-133™, K562 cell line ATCC® CCL-243™, Panc1 cell line ATCC® CRL-1469™. A375.S2 cell line ATCC® CRL-1872™, A549 cell line ATCC® CCL-185™, HELA cell line ATCC® CCL-2™ were cultured in Dulbecco’s modified eagle’s medium (DMEM). (DMEM) containing foetal bovine serum (FBS) (Bio Whittaker, Verviers, Belgium), 4-(2-hydroxyethyl)-1-piperazine ethane sulfonic acid (HEPES) Buffer, L-glutamine, gentamicin, penicillin, and streptomycin sulphate (Sigma, St. Luis, MO, USA), trypsin, trypan blue, Ciprofloxacin HCl from Aarti drugs Ltd/India, was a kind gift from Pharma International Company- Amman; Fluconazole from Neopharma, United Arab Emirates, a kind gift from Pharmaceutical Research Unit, Amman; Trypon soya agar (TSA), trypon soya broth (TSB), sabouraud dextrose agar (SDA) were obtained from Liofilchem (Italy) or Oxoid LTD (Basingstoke, England), they were reconstituted and sterilized by autoclave at 121 °C for 15 min.
(§2) The cytotoxicity measurements were determined using Sulforhodamine B (SRB) colorimetric assay for cytotoxicity screening. The mechanism of reduction of cell viability was adopted as described previously (Arabiyat et al., 2016a,b; 2017; Alabsi et al., 2018; Jumah, 2018; AlShahrabi et al., 2020). Human periodontal ligament fibroblasts (PDL) are a primary normal cell culture for verification of selective cytotoxicity. […] Selectivity ratio as indicative factor of the safety of compounds was calculated by dividing IC50 of tested compound on normal fibroblasts by IC50 of the same compound on specific pathological cell line (Hoffman et al., 2011).

PDL Fibroblasts = experiment: SRB cytotoxicity on normal periodontal ligament fibroblasts, selective cytotoxicity; type: cell-based, Human; conditions: for IC50: Homo sapiens, Fibroblast, normal fibroblasts, SRB, 72 h, mean ± SD; for Selectivity index SI (HELA): IC50 on PDL fibroblasts divided by IC50 on HELA; for Selectivity index SI (A562): IC50 on PDL fibroblasts divided by IC50 on the cell line printed as A562; for Selectivity index SI (K562): IC50 on PDL fibroblasts divided by IC50 on K562
Experimental: as §2

HELA cell line = experiment: SRB cytotoxicity assay, HELA cervical cancer cell line; conditions: Homo sapiens, HeLa, 72 h
Experimental: as §1, §2

A375.S2 cell line = experiment: SRB cytotoxicity assay, A375.S2 melanoma cell line; conditions: Homo sapiens, A375-S2, 72 h, read-out: Cytotoxicity IC50 value, A375.S2 cell line
Experimental: as §1, §2

T47D cell line = experiment: cells; conditions: Homo sapiens, T47D, 72 h, read-out: Cytotoxicity IC50 value, T47D cell line
Experimental: as §1, §2

MCF7 cell line = experiment: SRB cytotoxicity assay, MCF7 breast cancer cell line; conditions: Homo sapiens, MCF7, 72 h, read-out: Cytotoxicity IC50 value, MCF7 cell line
Experimental: as §1, §2

PANC 1 cell line = experiment: SRB cytotoxicity assay, PANC 1 pancreatic cancer cell line; conditions: Homo sapiens, PANC-1, 72 h, read-out: Cytotoxicity IC50 value, PANC 1 cell line
Experimental: as §1, §2

K562 cell line = experiment: SRB cytotoxicity assay, K562 leukaemia cell line; conditions: Homo sapiens, K562, 72 h
Experimental: as §1, §2

[1] = 0.1-200 μg/mL range, NI = lack of cytotoxicity in range
[2] = read-out: Cytotoxicity IC50 value, HELA cell line, SRB, 72 h, 0.1-200 μg/mL range, mean ± SD, value in brackets
[3] = read-out: Cytotoxicity IC50 value, HELA cell line, SRB, 72 h, 0.1-200 μg/mL range, mean ± SD, NI = lack of cytotoxicity in range
[4] = read-out: Cytotoxicity IC50 value, K562 cell line, SRB, 72 h, 0.1-200 μg/mL range, mean ± SD, value in brackets
[5] = read-out: Cytotoxicity IC50 value, K562 cell line, SRB, 72 h, 0.1-200 μg/mL range, mean ± SD, NI = lack of cytotoxicity in range

Compound	IC50 (A549 cell line)	IC50 (PDL Fibroblasts; [1])	IC50 (PDL Fibroblasts; value in brackets)	Selectivity index SI (HELA) (PDL Fibroblasts)	IC50 (HELA cell line; [2])	IC50 (HELA cell line; [3])	IC50 (A375.S2 cell line)	IC50 (T47D cell line)	IC50 (MCF7 cell line)	IC50 (PANC 1 cell line)	IC50 (K562 cell line; [4])	IC50 (K562 cell line; [5])	Selectivity index SI (A562) (PDL Fibroblasts)	Selectivity index SI (PANC 1) (PDL Fibroblasts; IC50 on PDL fibroblasts divided by IC50 on PANC 1)	Selectivity index SI (K562) (PDL Fibroblasts)
CCCCCCc1ccc(Nc2c(F)cc3c(=O)c(C(=O)O)cn(C4CC4)c3c2[N+](=O)[O-])cc1 [3f, 1-cyclopropyl-6-fluoro-7-(4-hexyl-phenylamino)-8-nitro-4-oxo-1,4-dihydro-quinoline-3-carboxylic acid]	63.9 µM and 29.9 µg/mL	119 ± 19.7 µM	55.7 µg/mL	16.01	3.48 µg/mL	7.44 ± 0.78 µM	63.1 µM and 29.5 µg/mL	141 µM and 66 µg/mL	135 µM and 63.3 µg/mL	1.67 mM and 779 µg/mL	30 µg/mL	64.1 ± 4.78 µM	–	–	–
COc1ccc(Nc2c(F)cc3c(=O)c(C(=O)O)cn(C4CC4)c3c2[N+](=O)[O-])c(OC)c1 [3g, 1-cyclopropyl-7-(2,4-dimethoxy-phenylamino)-6-fluoro-8-nitro-4-oxo-1,4-dihydro-quinoline-3-carboxylic acid]	> 200 µg/mL	> 200 µg/mL	–	–	–	> 200 µg/mL	> 200 µg/mL	> 200 µg/mL	> 200 µg/mL	> 200 µg/mL	–	> 200 µg/mL	–	–	–
COc1ccccc1Nc1c(F)cc2c(=O)c(C(=O)O)cn(C3CC3)c2c1N [4a, 8-amino-1-cyclopropyl-6-fluoro-7-(2-methoxy-phenylamino)-4-oxo-1,4-dihydro-quinoline-3-carboxylic acid]	153 µM and 58.7 µg/mL	140 ± 10.5 µM	53.8 µg/mL	3.46	15.5 µg/mL	40.4 ± 6.03 µM	72.3 µM and 27.8 µg/mL	95.8 µM and 36.8 µg/mL	> 200 µg/mL	113 µM and 43.4 µg/mL	16.9 µg/mL	44 ± 3.88 µM	–	–	–
COc1ccc(Nc2c(F)cc3c(=O)c(C(=O)O)cn(C4CC4)c3c2N)cc1 [4c, 8-amino-1-cyclopropyl-6-fluoro-7-(4-methoxy-phenylamino)-4-oxo-1,4-dihydro-quinoline-3-carboxylic acid]	5.11 µM and 1.96 µg/mL	138 ± 8.26 µM	53 µg/mL	–	97.8 µg/mL	255 ± 2.15 µM	248 µM and 95 µg/mL	77.2 µM and 29.6 µg/mL	57.4 µM and 22 µg/mL	72.1 µM and 27.6 µg/mL	20 µg/mL	52.1 ± 6.9 µM	27.07	–	–
CCc1ccc(Nc2c(F)cc3c(=O)c(C(=O)O)cn(C4CC4)c3c2N)cc1 [4d, 8-Amino-1-cyclopropyl-6-fluoro-7-(4-ethyl-phenylamino)-4-oxo-1,4-dihydro-quinoline-3-carboxylic acid]	20.2 µM and 7.72 µg/mL	50.4 ± 4.28 µM	19.2 µg/mL	–	51.7 µg/mL	136 ± 4.58 µM	47 µM and 17.9 µg/mL	53.7 µM and 20.5 µg/mL	21.3 µM and 8.14 µg/mL	65.3 µM and 24.9 µg/mL	15.9 µg/mL	41.8 ± 4.98 µM	2.49	–	–
CCCCCCc1ccc(Nc2c(F)cc3c(=O)c(C(=O)O)cn(C4CC4)c3c2N)cc1 [4f, 8-Amino-1-cyclopropyl-6-fluoro-7-(4-hexyl-phenylamino)-4-oxo-1,4-dihydro-quinoline-3-carboxylic acid]	204 µM and 89.5 µg/mL	352 ± 7.36 µM	154 µg/mL	–	13.4 µg/mL	30.7 ± 3.79 µM	244 µM and 107 µg/mL	308 µM and 135 µg/mL	300 nM and 0.13 µg/mL	110 nM and 0.05 µg/mL	30.4 µg/mL	69.4 ± 6.64 µM	–	3199.45	–
COc1cccc(-n2nnc3c4c(cc(F)c32)c(=O)c(C(=O)O)cn4C2CC2)c1 [5b, 9-cyclopropyl-4-fluoro-3-(3-methoxy-phenyl)-6-oxo-6,9-dihydro-3H-[1,2, and 3] triazolo [4,5-h] quinoline-7-carboxylic acid]	196 µM and 77.2 µg/mL	143 ± 10.8 µM	56.4 µg/mL	–	26.3 µg/mL	66.9 ± 2.73 µM	364 µM and 143 µg/mL	18 µM and 7.08 µg/mL	112 µM and 44.2 µg/mL	178 µM and 70.2 µg/mL	4.56 µg/mL	11.6 ± 0.61 µM	–	–	12.35
COc1ccc(-n2nnc3c4c(cc(F)c32)c(=O)c(C(=O)O)cn4C2CC2)cc1 [5c, 9-cyclopropyl-4-fluoro-3-(4-methoxy-phenyl)-6-oxo-6,9-dihydro-3H-[1,2, and 3] triazolo [4,5-h] quinoline-7-carboxylic acid]	427 µM and 168 µg/mL	496 ± 52.5 µM	195 µg/mL	–	179 µg/mL	454 ± 19.1 µM	453 µM and 178 µg/mL	398 µM and 156 µg/mL	> 200 µg/mL	> 200 µg/mL	97.4 µg/mL	248 ± 44.6 µM	–	–	2.00
CCCCCCc1ccc(-n2nnc3c4c(cc(F)c32)c(=O)c(C(=O)O)cn4C2CC2)cc1 [5f, 9-cyclopropyl-4-fluoro-3-(4-hexyl-phenyl)-6-oxo-6,9-dihydro-3H-[1,2,3] triazolo[4,5-h]quinoline-7-carboxylic acid]	362 µM and 162 µg/mL	474 ± 33.5 µM	212 µg/mL	132.15	1.61 µg/mL	3.59 ± 0.05 µM	508 µM and 227 µg/mL	232 µM and 104 µg/mL	181 µM and 81.1 µg/mL	119 µM and 53.4 µg/mL	14.1 µg/mL	31.5 ± 2.92 µM	–	–	–
